Patent US20080009019A1, “HIGH THROUGHPUT METHOD FOR SCREENING CANDIDATE COMPOUNDS FOR BIOLOGICAL ACTIVITY” (SmithKline Beecham Corporation, priority 2001, published 2008)

Legend:
Type in all cases: cell-based
MC1R [1] = target: T1, MC1R (Homo sapiens, UniProt Q01726); test: Bead-based lawn assay, peptides photocleaved from beads in lawn of CHO-6CRE-luc+-MC1R cells; design: expressed in transfected cells; details: for response value at plateau compared with maximal response to [NDP]-α-MSH: 3-minute UV time point, FIG. 11B versus FIG. 11A; for UV exposure time point at which response began to plateau: 5 beads per peptide pushed into lawn, UV 365 nm for 0, 0.5, 1, 3, 10 minutes, FIG. 11B
T1 sequence (Q01726 whole entry): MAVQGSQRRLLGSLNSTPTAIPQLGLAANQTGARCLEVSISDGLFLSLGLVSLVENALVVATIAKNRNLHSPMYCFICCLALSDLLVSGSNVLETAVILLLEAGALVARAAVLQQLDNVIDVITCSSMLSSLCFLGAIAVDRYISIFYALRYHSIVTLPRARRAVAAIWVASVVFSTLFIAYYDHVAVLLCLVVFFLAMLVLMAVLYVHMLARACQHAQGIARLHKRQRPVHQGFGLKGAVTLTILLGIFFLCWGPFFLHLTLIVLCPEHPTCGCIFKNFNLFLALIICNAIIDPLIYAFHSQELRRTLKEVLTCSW
Experimental: Agonists for GPCRs were assayed using beads to which peptides or compounds are attached by a photolinker. The beads were either mixed in the agarose or were applied to the surface of the lawn. The attached compound or peptide was cleaved by exposure to UV light.
Cell culture and assay methods were as described in Example 1. Hexamer peptides were linked to 200 micrometer […]™ microsphere beads (polystyrene core with […]™ pegs—available from Rapp Polymere GmbH of Tubingen, Germany) by a photocleavable linker. Two peptides were tested for validation purposes: Peptide 1-Ac-NH-Ser-Val-dHis-dPhe-Arg-Trp (SEQ ID NO:1) and Peptide 2-Ac-NH-Val-Ala-dHis-dPhe-Arg-Tyr (SEQ ID NO:2). Beads were added to the agarose lawn either by pushing the bead into the agarose with forceps or by suspending the beads in the melted agarose/cell mixture. Peptides were cleaved from the beads by exposure to ultraviolet light using a UV lamp set at 365 nm wavelength (λ).
A time course of delivery of MC1R agonist peptides 1 and 2, which were linked to beads (described in methods), to a lawn of CHO-6CRE-luc^+-MC1R cells is shown in FIGS. 10A-10E. The peptides were cleaved from the beads by increasing the time of UV exposure. FIGS. 10A-10E depict UV exposure for 0, 0.5, 1, 3, and 10 minutes, respectively. A concentration-response curve for of [NDP]-α-MSH was run in row 1 on each lawn at the same concentrations as in FIG. 9. Five (5) beads each of peptide 1 and 2 were pushed into the agarose layer with forceps. Peptide 1 and 2 were on the left and right of each lawn, respectively.
FIG. 11A is a line graph representation of the average luminescence of the 5 beads at each time point. The response was calculated by subtracting the background z value for the lawn from the z value for each area to which the bead was applied. The magnitude of response is dictated by both the response of the reporter cell line and the amount of peptide that can be released from the beads. Both peptide 1 and 2 are full agonists for MC1R when tested in a well-based reporter assay so both peptides are capable of eliciting a response similar to [NDP]-α-MSH.

MC1R [2] = target: T1, MC1R; test: Well-based reporter assay
[3] = target: T2, corticotrophin releasing factor receptor (CRHR1) (Homo sapiens, UniProt P34998); test: Agarose lawn reporter assay, CHO-6xCRE-luc+ cells expressing CRH1 receptor; details: approximately 10 nl of 5×10^−4 M to 1.5×10^−6 M peptide solution on lawn by HDR pin tool; 4 hours at 37° C.; FIGS. 7A-7B
T2 construct: expressed in transfected cells
T2 sequence (P34998 24-415): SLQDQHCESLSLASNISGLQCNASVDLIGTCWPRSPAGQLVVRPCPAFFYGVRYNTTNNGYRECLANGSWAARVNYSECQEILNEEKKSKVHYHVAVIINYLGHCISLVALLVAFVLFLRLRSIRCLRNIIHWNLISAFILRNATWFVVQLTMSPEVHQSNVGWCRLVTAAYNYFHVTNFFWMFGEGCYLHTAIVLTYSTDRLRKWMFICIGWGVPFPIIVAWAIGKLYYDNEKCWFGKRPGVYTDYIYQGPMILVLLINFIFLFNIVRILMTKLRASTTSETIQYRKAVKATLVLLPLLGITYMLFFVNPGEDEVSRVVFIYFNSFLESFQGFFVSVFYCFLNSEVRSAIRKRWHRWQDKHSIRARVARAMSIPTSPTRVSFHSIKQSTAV
Description: Chinese hamster ovary (CHO) cells were transfected with a 6xCRE-luciferase^+reporter gene. A stable host cell line was selected, into which cloned human receptors were transfected. Stable cell lines expressing these receptors were selected for screening purposes.
A reporter gene host cell line stably expressing a reporter construct comprising 6 cyclic AMP response elements (CREs) driving the expression of luciferase (6xCRE-luciferase^+) was generated as described by Goetz et al., (2000) J. Biomolec. Screening 5:377-384. […]
1.5 grams of LMP agarose were dissolved in 100 ml of assay medium (DMEM/F12 medium containing 2% glutamine) in a microwave oven. […] The cells were collected from suspension culture and were re-suspended in 60 ml of assay medium for determination of quantity of cells. […]
Solutions of peptides were then delivered to the lawn using a HDR 96-pin tool that delivers approximately 10 nanoliters (nl) of solution. […] Luminescence was detected using a VIEWLUX® camera.
Images were acquired by focusing luminescent light from the OMNI PLATE® tray, for 90 seconds, onto a CCD camera chip via a telecentric lens. […] The gray intensity was determined by scanning each grid unit to determine where the highest point in the region was located. […] The x and y co-ordinates were recorded to facilitate the production of graphical representations of the data.

Substance | response value at plateau compared with maximal response to [NDP]-α-MSH (MC1R [1]) | UV exposure time point at which response began to plateau (MC1R [1]) | agonist character for MC1R (MC1R [2]) | concentration-response curve of luminescence activity [3]
Ac-NH-Ser-Val-dHis-dPhe-Arg-Trp [peptide 1] | well below the maximal response to [NDP]-α-MSH | 3 min | full agonists | –
Ac-NH-Val-Ala-dHis-dPhe-Arg-Tyr [peptide 2] | well below the maximal response to [NDP]-α-MSH | 3 min | full agonists | –
corticotrophin releasing factor [CRH] | – | – | – | concentration-response curve of luminescence activity was only observed when peptide was applied to the cell line expressing the appropriate receptor
